Reference: patent US11084829B2, “Ubiquitin-specific-processing protease 7 (USP7) modulators and uses thereof” (RAPT THERAPEUTICS, INC., priority 2018, dated 2021)
Read-outs that look alike come from different tables or passages of the source.

Legend:
[1] = test system: phosphorylated histone H2AX (γ-H2AX); assay: γ-H2AX measurement (flow cytometry); type: cell-based
Protocol: (§1) For Western blotting, compound-treated cells were lysed in RIPA lysis buffer (ThermoScientific) containing Halt Protease and Phosphatase Inhibitor Cocktail (Life Technologies). Lysates were quantified using the BCA protein assay (Pierce) and equivalent protein was separated by SDS-PAGE (4-12%, ThermoScientific). Following electrophoresis, proteins were transferred to PVDF membranes. […] Caspase activation assays were performed on compound-treated cells using the Caspase-Glo 3/7 Assay Kit (Promega) according to the manufacturer's protocol, and luminescence was measured using a CLARIOstar plate reader (BMG LABTECH). […] Data were collected using FACSCanto (Becton Dickinson) and Attune (Thermo Fisher Scientific) flow cytometers and analyzed with FlowJo software (FlowJo LLC). […] Lysates were quantified using the BCA protein assay (Pierce) and equivalent protein was used in the PathScan Phospho-S6 Ribosomal Protein (Ser235/236) Sandwich ELISA Kit (Cell Signaling) according to the manufacturer's protocol. Absorbance was measured using the Spectramax 300 plate reader (Molecular Devices). […]

H526 cells [2] = assay: Compound synergy (Bliss independence) in H526 cells; type: cell-based
Protocol: (§2) CHP-134 was purchased from Sigma Aldrich, MOLM-13 was purchased from AddexBio, and NB-1 was purchased from Sekisui XenoTech. All other cell lines were purchased from American Type Culture Collection. For all cell lines, identity was confirmed by short tandem repeat profiling and culturing was performed in recommended growth medium. For studies evaluating cellular effects of compound treatment, 250 to 2,000 cells in 40 μl of recommended medium were seeded per well in 384-well plates (Corning 3764). DMSO-solubilized compounds were added in duplicate in a two-fold dilution series using a D300e Digital Dispenser (Hewlett-Packard). Following a 5-day incubation, cell viability was measured using CellTiter-Glo (Promega) following the manufacturer's instructions. Luminescence was measured using a CLARIOstar plate reader (BMG LABTECH) and normalized to that of DMSO-treated cells. IC50 values were determined by non-linear regression using a 4-parameter fit in Prism (GraphPad Software). Inhibitor profiling of the 430-cell line panel was conducted and analyzed similarly.
Cancer Cell Line Encyclopedia (CCLE) mutation data was downloaded from https://data.broadinstitute.org/ccleiCCLE_DepMap_18Q2_maf_20180502.txt.gz. Genes were considered mutated if they were annotated in CCLE as containing variants that were either a TCGA Hotspot, a COSMIC Hotspot, or a deleterious variant. Genes with at least 6 mutated cell lines out of the 397 cell lines that overlapped with the cell line screening panel were tested one gene at a time in linear models or coordinately in multivariate models where the fraction cell signal at 1 μM compound was the dependent variable. For compound synergy analysis, a Bliss-independence model was used. Briefly, the products of the fraction of maximal cell signal for each of the tested compounds alone were calculated as the expected signal in the absence of any compound interaction. The log2 of the ratio of expected:observed signal was calculated to indicate synergy (positive) or interference (negative) interactions. For in vivo studies, interval-censored survival analysis was performed using the icenReg package (reference: https://cran.r-project.org/web/packages/icenReg/citation.html), using the “ic_par” parametric regression model with proportional hazards and a Weibull distribution.
Tests were conducted to determine whether the USP7 inhibitor 3-((7-(5-chloro-3-methyl-2-(((R)-morpholin-2-yl)methyl)phenyl)thieno[3,2-b]pyridin-2-yl)methyl)-6,6-dimethyl-3-azabicyclo[3.1.0]hexane-2,4-dione potentiates the activity of DNA-damaging agents commonly used for small cell lung cancer chemotherapy, namely carboplatin, doxorubicin, and the PARP inhibitor olaparib.
The effect of combining the USP7 inhibitor 3-((7-(5-chloro-3-methyl-2-(((R)-morpholin-2-yl)methyl)phenyl)thieno[3,2-b]pyridin-2-yl)methyl)-6,6-dimethyl-3-azabicyclo[3.1.0]hexane-2,4-dione with the PIM kinase inhibitor AZD 1208, the PI3K inhibitor pictilisib and the PI3K inhibitor taselisib in the p53 mutant H526 cell line was tested. […] Both PIM and PI3K promote the activity of mammalian target of rapamycin (mTOR), which regulates cellular protein translation and controls phosphorylation of S6 at the Ser235/236 site.

H526 cells [3] = assay: Apoptosis (caspase-3/7 induction, sub-G1 population) in H526 cells; type: cell-based; settings: starting 72 hours post treatment, data not shown
Protocol: as §1

H526 cells [4] = assay: RNASeq transcriptomic profiling and gene set enrichment in H526 cells; type: cell-based; settings: treatment for 24 or 48 hours
Protocol: RNA was extracted from approximately 1 million cells using the Allprep DNA/RNA Mini Kit (Qiagen). Whole transcriptome non-stranded libraries were prepared using the TruSeq RNA Library Prep Kit v2 (Illumina). Sequencing was performed on Illumina NovaSeq using paired-end mode, 200 cycles, targeting 40 million reads per sample, by MedGenome. Sequencing results were processed on the Seven Bridges Genomics platform through Kallisto Quant (version 0.43.1) aligning to the gencode.v27 transcript reference. Aligned reads were imported by tximport (version 1.10.1) and Treatment fold change and significance were calculated with DESeq2 (version 1.22.2) with an experimental design of “˜Time+Treatment+Time: Treatment” on genes with at least 10 counts. Shrunk log 2 fold changes (lfcShrink function, type=“apeglm”) were used for significance calculation.
In order to identify pathways impacted by USP7 inhibition, RNASeq was used to profile transcriptomic changes in H526 cells following treatment with the USP7 inhibitor 3-((7-(5-chloro-3-methyl-2-(((R)-morpholin-2-yl)methyl)phenyl)thieno[3,2-b]pyridin-2-yl)methyl)-6,6-dimethyl-3-azabicyclo[3.1.0]hexane-2,4-dione for 24 or 48 hours. […] Measurement of transcriptional changes prior to 72 hours should thus uncover programs triggered by USP7 inhibition without being confounded by apoptosis pathways themselves. […]

[5] = test system: phosphorylated S6 (Ser235/236); assay: Phospho-S6 ELISA; type: cell-based; settings: treatment with the compound alone
Protocol: as §1

USP7 = USP7 (Homo sapiens, UniProt Q93009); assay: USP7 inhibitory potency (IC50); type: biochemical
Protocol: Activity for compounds described herein is provided in Table 2, wherein potency levels are provided as follows: (Potency: USP7 IC50: A<0.01 μM; B=0.01-0.1 μM; C=>0.1 μM.

H526 = assay: Cell viability (CellTiter-Glo), H526; type: cell-based; settings: Homo sapiens, NCI-H526
Protocol: as §2
(§3) In addition to the many p53 wild-type cell lines in the cell line panel that were sensitive to USP7 inhibition, a subset of p53 mutant cell lines that were inhibited by our USP7 inhibitors were identified and are shown in Table 5.
(§4) The effect of pharmacological inhibition of USP7 on the viability of the p53 mutant small cell lung cancer cell line, H526 was further evaluated. […] In contrast, idasanutlin, whose inhibitory effect is dependent on a functional p53 pathway, had no effect.

NB-1 = assay: Cell viability (CellTiter-Glo), NB-1; type: cell-based; settings: Homo sapiens, NB1; NB-1, neuroblastoma, MYCN amplified, p53 wild-type
Protocol: as §2
(§5) USP7 has been reported to stabilize MYCN (also referred to as MYCN proto-oncogene, a gene that is a member of the MYC family which is over-expressed in a variety of tumors). Since MYCN amplification is an established driver mutation in neuroblastoma, the effect of USP7 inhibition on a panel of p53 wild-type, MYCN- or MYC-amplified neuroblastoma cell lines was tested. The USP7 inhibitors of Examples 31 and 124 reduced viability of all three MYCN-amplified and two MYC-amplified neuroblastoma cell lines tested as shown in Table 4. Idasanutlin was used as a positive control, and as expected these cell lines were also sensitive to this compound.

M07e = assay: Cell viability (CellTiter-Glo), M07e; type: cell-based; settings: M-07e, AML, p53 wild-type
Protocol: as §2
(§6) USP7 inhibition by the compounds of Examples 31 and 124 reduced the viability of several p53-wild type blood cancer cell lines, including M07e, OCI-AML5 and MOLM13, in vitro as shown in the following Table 3. Idasanutlin was used as a positive control, and as expected these cell lines were also sensitive to this compound.

OCI-AML5 = assay: Cell viability (CellTiter-Glo), OCI-AML5; type: cell-based; settings: Homo sapiens, OCI-AML-5, p53 wild-type
Protocol: as §2, §6

SK-N-DZ = assay: Cell viability (CellTiter-Glo), SK-N-DZ; type: cell-based; settings: Homo sapiens, neuroblastoma, MYCN-amplified, p53-mutant
Protocol: as §2, §3

p21 = assay: Western blot of p21 in H526 cells; type: cell-based; settings: after 2, 8 or 24 hours of treatment
Protocol: (§7) For Western blotting, compound-treated cells were lysed in RIPA lysis buffer (ThermoScientific) containing Halt Protease and Phosphatase Inhibitor Cocktail (Life Technologies). Lysates were quantified using the BCA protein assay (Pierce) and equivalent protein was separated by SDS-PAGE (4-12%, ThermoScientific). Following electrophoresis, proteins were transferred to PVDF membranes. […] Caspase activation assays were performed on compound-treated cells using the Caspase-Glo 3/7 Assay Kit (Promega) according to the manufacturer's protocol, and luminescence was measured using a CLARIOstar plate reader (BMG LABTECH). […] Data were collected using FACSCanto (Becton Dickinson) and Attune (Thermo Fisher Scientific) flow cytometers and analyzed with FlowJo software (FlowJo LLC). […] Lysates were quantified using the BCA protein assay (Pierce) and equivalent protein was used in the PathScan Phospho-S6 Ribosomal Protein (Ser235/236) Sandwich ELISA Kit (Cell Signaling) according to the manufacturer's protocol. Absorbance was measured using the Spectramax 300 plate reader (Molecular Devices).
(§8) The effect of pharmacological inhibition of USP7 on the viability of the p53 mutant small cell lung cancer cell line, H526 was further evaluated. […]

H526 xenograft = H526 xenograft model in athymic nude mice; type: in vivo
Protocol: MM. 1S and H526 xenograft studies were conducted according to the guidelines approved by the Applicant's Institutional Animal Care and Use Committee (IACUC). MM.1S cells were inoculated in PBS into irradiated NOD/SCID mice, while H526 cells were inoculated in PBS/Matrigel (Corning) into Nu/Nu mice (Jackson Laboratories). Mice were randomized into groups when mean tumor size reached 150 mm^3 (MM.1S) or 50-100 mm^3 (H526), respectively, and drug administration by oral gavage was started on day of randomization. Tumor volumes and body weights were subsequently measured twice per week. Tumor volumes were calculated using the formula: V=0.5(A×B^2), where A and B are the long and short diameters of the tumor, respectively.
as §4

[6] = Tolerability in tumor-free mice (preliminary to H526 study); type: in vivo; settings: preliminary testing, oral 50 mg/kg twice daily or 100 mg/kg daily
MOLM13 = assay: Cell viability (CellTiter-Glo), MOLM13; type: cell-based; settings: Homo sapiens, MOLM-13; MOLM13, AML, p53 wild-type
Protocol: as §2, §6

LA-N-2 = assay: Cell viability (CellTiter-Glo), LA-N-2; type: cell-based; settings: LA-N-2, neuroblastoma, MYCN-amplified, p53-mutant
Protocol: as §2, §3

MM.1S = assay: Cell viability (CellTiter-Glo), MM.1S; type: cell-based; settings: Homo sapiens, MM1.S, p53 wild-type
Protocol: as §2, §6

MYCN = assay: Western blot of MYCN in H526 cells; type: cell-based; settings: after 2, 8 or 24 hours of treatment
Protocol: as §7, §8

CHP-134 = assay: Cell viability (CellTiter-Glo), CHP-134; type: cell-based; settings: Homo sapiens; CHP-134, neuroblastoma, MYCN amplified, p53 wild-type
Protocol: as §2, §5

SH-SY5Y = assay: Cell viability (CellTiter-Glo), SH-SY5Y; type: cell-based; settings: Homo sapiens, neuroblastoma, MYC amplified, p53 wild-type
Protocol: as §2, §5

[7] = H526 xenograft, athymic nude mice, twice-daily oral 50 mg/kg (FIG. 2) or daily oral 100 mg/kg (data not shown)

Sequence of USP7 (Q93009 whole entry): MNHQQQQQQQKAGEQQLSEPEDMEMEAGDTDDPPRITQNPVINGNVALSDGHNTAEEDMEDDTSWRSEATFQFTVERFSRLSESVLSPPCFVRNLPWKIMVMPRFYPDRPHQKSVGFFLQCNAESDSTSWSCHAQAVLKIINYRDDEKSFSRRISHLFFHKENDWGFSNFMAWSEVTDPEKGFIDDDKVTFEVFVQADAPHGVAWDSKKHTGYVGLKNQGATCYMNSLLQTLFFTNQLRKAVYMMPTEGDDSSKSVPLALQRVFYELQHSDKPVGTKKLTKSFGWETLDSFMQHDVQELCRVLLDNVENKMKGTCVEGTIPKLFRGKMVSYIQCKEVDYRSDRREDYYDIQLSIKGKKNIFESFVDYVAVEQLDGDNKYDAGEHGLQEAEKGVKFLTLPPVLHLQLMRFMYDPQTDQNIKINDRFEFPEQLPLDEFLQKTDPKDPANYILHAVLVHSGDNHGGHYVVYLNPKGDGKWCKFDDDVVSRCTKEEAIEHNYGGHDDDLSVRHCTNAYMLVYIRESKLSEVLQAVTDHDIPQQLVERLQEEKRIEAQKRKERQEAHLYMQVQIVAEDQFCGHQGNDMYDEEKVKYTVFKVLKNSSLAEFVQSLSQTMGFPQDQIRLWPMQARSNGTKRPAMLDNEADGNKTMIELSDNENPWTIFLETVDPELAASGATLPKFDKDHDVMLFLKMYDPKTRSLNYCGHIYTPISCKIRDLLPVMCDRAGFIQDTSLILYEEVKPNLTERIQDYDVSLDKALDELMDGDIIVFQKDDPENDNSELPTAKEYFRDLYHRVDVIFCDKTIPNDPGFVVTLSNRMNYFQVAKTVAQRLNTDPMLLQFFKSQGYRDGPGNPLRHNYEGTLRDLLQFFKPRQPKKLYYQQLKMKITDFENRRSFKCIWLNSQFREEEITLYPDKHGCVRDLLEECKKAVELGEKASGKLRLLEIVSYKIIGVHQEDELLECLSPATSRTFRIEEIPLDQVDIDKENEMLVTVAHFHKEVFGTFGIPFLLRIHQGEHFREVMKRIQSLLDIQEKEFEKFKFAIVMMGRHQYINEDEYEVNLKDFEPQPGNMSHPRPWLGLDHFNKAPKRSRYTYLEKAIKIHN

## Cc1cc(Cl)cc(-c2ccnc3cc(CN4C(=O)C5C(C4=O)C5(C)C)sc23)c1C[C@@H]1CNCCO1 (stereo partly drawn) [3-((7-(5-chloro-3-methyl-2-(((R)-morpholin-2-yl)methyl)phenyl)thieno[3,2-b]pyridin-2-yl)methyl)-6,6-dimethyl-3-azabicyclo[3.1.0]hexane-2,4-dione]
[1]; USP7 inhibitor alone
  levels of phosphorylated histone H2AX (γ-H2AX): did not increase levels of phosphorylated histone H2AX (γ-H2AX)
[1]; combination of the USP7 inhibitor and carboplatin
  levels of γ-H2AX: increased γ-H2AX
H526 cells [2]; combination with carboplatin
  synergy with carboplatin: modest synergy
H526 cells [2]; combination with doxorubicin
  synergy with doxorubicin: modest synergy
H526 cells [2]; combination with the PARP inhibitor olaparib
  synergy with olaparib: modest synergy
H526 cells [2]; compound dosed with itself (control)
  synergy when dosed with itself: no synergy was observed
H526 cells [2]; p53 mutant, combination with the PI3K inhibitor pictilisib
  synergy with pictilisib: strongly synergized
H526 cells [2]; p53 mutant, combination with the PI3K inhibitor taselisib
  synergy with taselisib: strongly synergized
H526 cells [2]; p53 mutant, combination with the PIM kinase inhibitor AZD 1208
  synergy with AZD 1208: strongly synergized
H526 cells [3]
  apoptosis (caspase-3/7 induction, sub-G1 population): induced apoptosis in H526 cells in a dose-dependent manner
H526 cells [4]
  transcriptomic changes (RNASeq): upregulation of a large number of genes normally silenced by the polycomb repressive complex 2 (PRC2)
[5]
  levels of phosphorylated S6 (Ser235/236): decreased levels of phosphorylated S6 (Ser235/236)

## Cc1cc(Cl)cc(-c2ccnc3cc(CN4C(=O)C5C(C4=O)C5(C)C)sc23)c1C[C@@H]1CNCCO1 (stereo partly drawn) [Example 124, 3-((7-(5-chloro-3-methyl-2-(((R)-morpholin-2-yl)methyl)phenyl)thieno[3,2-b]pyridin-2-yl)methyl)-6,6-dimethyl-3-azabicyclo[3.1.0]hexane-2,4-dione]
USP7
  IC50: < 10 nM
H526; H526, lung, small cell, p53-mutant, read-out: CC50
  CC50: 500 nM
H526; H526, p53 mutant small cell lung cancer, CellTiter-Glo assay, read-out: CC50 (viability of H526 in vitro)
  CC50: 500 nM
NB-1
  CC50: 500 nM
M07e
  CC50: 200 nM
OCI-AML5
  CC50: 200 nM
SK-N-DZ
  CC50: 200 nM
p21
  p21 level: did not induce any change in p21 level
H526 xenograft; [7]
  survival: prolonged survival
  tumor growth: inhibited tumor growth
H526 xenograft; tumor-bearing mice of the H526 study, oral 50 mg/kg twice daily or 100 mg/kg daily
  tolerability: well tolerated
[6]
  tolerability: well tolerated
MOLM13
  CC50: 400 nM
LA-N-2
  CC50: 200 nM
MM.1S
  CC50: 100 nM
MYCN
  MYCN protein levels: did not reduce MYCN protein levels
CHP-134
  CC50: 600 nM
SH-SY5Y
  CC50: 1900 nM
